pKi: −log10 of the molar value. Like-named read-outs stand apart in the source and are kept apart here.
Columns and labels:
[1] = Safety: treatment-emergent adverse events in study CL-0537; assay type: in vivo, healthy subjects
[2] = Safety: treatment-emergent adverse events in study CL-0538; assay type: in vivo, healthy subjects; settings: for TEAE dry mouth, subjects / TEAE headache, subjects: CL-0538; for number of TEAEs considered possibly related to the study drug / subjects with TEAEs considered possibly related to the study drug: investigator assessment
[3] = Safety and tolerability across the 3 studies; assay type: in vivo, healthy subjects; settings: roxadustat 200 mg, observation periods of the 3 studies
CYP2C8 = settings: read-out: inhibition constant (Ki); in vitro; cited from earlier work
[4] = cited from earlier work
[5] = plasma
[6] = atorvastatin 40 mg + roxadustat 200 mg, concomitant

## Cc1nc(C(=O)NCC(=O)O)c(O)c2ccc(Oc3ccccc3)cc12 [Roxadustat]
[1]; CL-0537
  TEAE headache, subjects: 7.1%
  TEAE nasopharyngitis, subjects: 0.0%
[1]; investigator assessment
  number of TEAEs considered related to the study drug: 4
  subjects with TEAEs considered related to the study drug: 4 (14.3%) n (%)
[2]
  TEAE dry mouth, subjects: 8.3%
  TEAE headache, subjects: 4.2%
  number of TEAEs considered possibly related to the study drug: 3
  subjects with TEAEs considered possibly related to the study drug: 2 (8.3%) n (%)
[3]
  deaths, serious TEAEs, AEs leading to discontinuation: did not result in any deaths, serious TEAEs, or AEs leading to discontinuation of study drug
CYP2C8
  pKi: 4.80
[4]; after single-dose oral administration, healthy subjects
  terminal elimination half-life (t1/2): ≈ 12 hours
[4]; fasted state
  time to maximum plasma concentrations (Cmax) after dosing: ≤ 2 h
[4]; oral, healthy subjects
  time to reach maximum plasma concentration (Cmax): ≤ 2 h

## CC(C)c1c(C(=O)Nc2ccccc2)c(-c2ccccc2)c(-c2ccc(F)cc2)n1CC[C@@H](O)C[C@@H](O)CC(=O)O [Atorvastatin]
[2]
  TEAE dry mouth, subjects: 0.0%
  TEAE headache, subjects: 4.2%
  number of TEAEs considered possibly related to the study drug: 2
  subjects with TEAEs considered possibly related to the study drug: 2 (8.3%) n (%)
[5]; [6]
  tlag, mean (SD): 0 (0.0) h
  tlag, median (min-max): 0 (0–0) h
[5]; atorvastatin 40 mg alone
  tlag, mean (SD): 0 (0.0) h
  tlag, median (min-max): 0 (0–0) h

Source: article PMC9306950 (Clinical Pharmacology in Drug Development, 2022)
